Experimental data reported in patent US12728111B2, “Electrophilic compounds and electrophilic prodrugs for treating aneurysm” (University of Pittsburgh—Of the Commonwealth System of …, priority 2020, dated 2026).

Legend:
MMP2 = test: Gelatin zymography in BMDMs, MMP2; type: cell-based, mouse; details: 2.5 μM, 12 h
Method: FIG. 4. NO2—OA inhibits PGE2-dependent EP4 cAMP downstream signaling. (A) Three parameters nonlinear regression of EP4 global fitting dose-response curve. […] (B) HTRF assay of cAMP-Gs coupled receptor. […] (D) Representative figure of gelatin zymography indicating MMP 2/9 activity. BMDMs were incubated with L-902,688 (100 nM) plus vehicle, OA (2.5 μM) or NO2—OA (2.5 μM) for 12 h, and MMP 2&9 activity was measured by gelatin zymography. For (A) and (B), three or four parameters, global or separate fitting, constraints, and the significance of EC50 were determined in Prism. Data presented as mean±SEM. A p<0.05 was considered statistically significant.
Freshly differentiated BMDMs were cultured in the bone marrow macrophage-differentiation media until 80% confluence. […] Then, the supernatant was collected and centrifuged to remove any residual debris. Measurement of MMP2 and MMP9 activity was performed by running the supernatant (using detergent-free loading buffer) in 1% gelatin gel, followed by staining with Coomassie blue.

p65 (NFκB) = test: oxLDL-induced p65 nuclear translocation in BMDMs (western blot); type: cell-based, mouse; details: 2.5 μM pretreatment 1 h, oxLDL 50 μg/ml 1 h
Method: FIG. 3. NO2—OA prevents oxLDL-induced NFκB activation and pro-inflammatory cytokine production. Primary BMDMs were pretreated with vehicle, OA (2.5 μM) or NO2—OA (2.5 μM) for 1 h, followed by treatment of oxLDL (50 to 100 μg/ml) for the indicated times. (A, B) Nuclear (A) and cytoplasmic protein (B) fractions were isolated 1 h after oxLDL treatment and subjected to western blot with antibodies against p65, lamin a/c (nuclear marker) and GAPDH (cytosolic marker). Representative western blot images of three independent experiments are shown. (C) Quantification of the p65 nuclear to cytoplasmic ratio by image studio (normalized by the internal control, n=3). (D-F) Following 8 h of oxLDL treatment, levels of IL6, MCP1 and TNFα in the cell medium were measured by ELISA (n=4). (G) Real-time PCR quantification of gene expression levels of IL1b and Mmp9 in total mRNA extracted from the BMDMs. […]
Nuclear/cytoplasm protein extraction, co-Immunoprecipitation and immunoblotting NE-PER™ Nuclear and Cytoplasmic Extraction Reagents (#78835, ThermoFisher) were used for nuclear and cytoplasmic protein extraction. […] Membranes were blocked by 5% BSA and incubated with the primary antibody at 4° C. overnight followed by incubation with fluorescence conjugated secondary antibody for 1 h at room temperature. Band intensity was collected with the Odyssey® CLx Imaging System and quantified using Image Studio™ Lite.

[1] = test system: Vcam1, MCP1, Icam1 gene expression in suprarenal aorta; test: Real-time PCR gene expression in mouse suprarenal aorta; type: in vivo
Description: FIG. 2. […] (A) Quantification of gene expression levels in the mice suprarenal aorta region by real-time PCR (n=3 to 4). (B, C) Serum cytokines levels measured by ELISA (n=8 to 11). (D) FACS of single cells isolated from the mice suprarenal aorta region. Each sample is the pool of cells from three mice (n=3). (E, F) Quantification of the percentage of CD45+ leukocytes and CD64+, CD11c+M1-like macrophages in total cells from the FACS analysis. Ordinary one-way ANOVA followed by Tukey's test was performed for (A), (E) and (F). For ELISA in (B) and (C), to avoid the effect of the non-detected data point, a non-parametric Kruskal-Wallis test followed by Dunn's multiple comparisons was performed by adding zero to the missing data point. Data presented as mean±SEM. A p<0.05 for both the main test and post hoc test was considered statistically significant.
Ten weeks old male C57BL/6J mice were purchased from The Jackson Laboratory. The murine AAA model induced by AngII/PCSK9 gain-of-function mutation is well-established. After acclimation for 1 week, mice were fed a western diet (TD.88137, Envigo) and intraperitoneally injected with 2×1011 genomic copies of AAV-PCSK9.D377Y (AAV serotype 8, Penn Vector Core). Two weeks later, each mouse was subcutaneously implanted with two osmotic pumps (Model #2004, Alzet). One was loaded with AngII (#H-1706, Bachem), releasing at a rate of 1,500ng/kg/min, while the other one was loaded with PEG-400, OA or NO2—OA at a delivery rate of 5 mg/kg/day for OA or NO2—OA. After 4-weeks infusion, mice were euthanized and the maximal outer diameter of the suprarenal aorta was assessed with a digital caliper by a third person blinded to the treatment. Suprarenal aortas with a maximal diameter ≥50% larger than standard size (≥1.2 mm) were considered as abdominal aortic aneurysms. […]
Mice suprarenal aortas were collected after the measurement of their diameter. […] Gene expression was quantified in triplicates by quantitative real-time PCR (qPCR) using IQ SYBR Green Supermix (#1708882, Bio-Rad) with the indicated gene primers.

CCCCCCCCC(=CCCCCCCCC(=O)O)[N+](=O)[O-] [NO2—OA, 10-nitro-octadec-9-enoic acid]
MMP2 activity (gelatin zymography) (MMP2): no significant changes | p65 nuclear to cytoplasmic ratio (p65 (NFκB)): 14.10±1.92 | expression of intercellular adhesion molecule 1 (Icam1) ([1]; vs vehicle): not statistically significant | expression of MCP1 gene ([1]; vs vehicle control): significantly decreased | expression of vascular cell adhesion protein 1 (Vcam1) gene ([1]; vs vehicle control): significantly decreased
